The test system of one data set is A375-luc cells. Kind of data set: Cell viability (MTS) and Chou-Talalay drug combination analysis in A375-luc cells. The class given is cell-based. The following applies: single agent, free or in NP, 2 days drug exposure. The protocol: Cells were seeded in 96-well plates for 24 h at a density of 2×10^3 cells/well. Cell masses that were viable after 2 days of drug exposure were determined by MTS assay. A CellTiter 96 AQueous One Solution Cell Proliferation Assay (Promega, Madison, Wis.) kit containing the tetrazolium compound MTS was used to assay cell viability according to the manufacturer's protocols.
Drug combination analysis was performed by using the method described by Chou and Talalay.
We evaluated the degree of synergy between RAPA and CDDP in terms of cytotoxicity toward A375-luc cells in culture. […] The cytotoxicity of combined CDDP and RAPA was enhanced by NP delivery over free drug combination.

Data set [1] in a line: Drug loading and encapsulation efficiency of cores and PLGA NPs. Type of data set: physicochemical. The following applies: DOPA coated cores encapsulated separately, DL up to approximately 5 wt %; n=5. The protocol:
The loading and encapsulation efficiency of Rapamycin was measured using High-performance Liquid Chromatography (HPLC, Waters, λ=277 nm); the loading and encapsulation efficiency of CDDP was measured using Inductively Coupled Plasma-Mass Spectroscopy (ICP-MS, NexION™ 300, Perkin Elmer Inc); the loading efficiency of GMP was measured both by Ultraviolet-visible spectrometer (UV, DU®800, Beckman Coulter) and ^3H labeled CMP incorporation using a Liquid Scintillation Analyzer (TRI-CARB 2900 TR, Packard Bioscience Co). The size distribution of particle was determined using a Malvern ZetaSizer Nano series (Westborough, Mass.). TEM images of NPs were acquired using a JEOL 100CX II TEM (JEOL, Japan). The NPs were negatively stained with 2% uranyl acetate. Approximately 100 NPs were analyzed for calculating the average number of CDDP cores per PLGA NP.
DL and EE of cisplatin were measured using Inductively Coupled Plasma-Mass Spectroscopy (ICP-MS, NexION™ 300, Perkin Elmer Inc); LE and EE of GMP were both measured by Ultraviolet-Visible Spectroscopy (UV, DU®800, Beckman Coulter) and ^3H labeled cytidine 5′ monophosphate (CMP) [5-^3H] disodium salt (Moravek Bio Inc, 1 mCi/mL) incorporation using a Liquid Scintillation Analyzer (TRI-CARB 2900 TR, Packard Bioscience Co). The size distribution of particles was determined using a Malvern ZetaSizer Nano series (Westborough, Mass.). […]

A short description of data set [2]: Serum biochemical value analysis, hematology and organ H&E. Type of data set: in vivo, mice. The following applies: for blood cell counts (RBC, PLT, WBC, HCT, HGB) vs untreated control: healthy nude mice, three dosages; for ALT / AST / BUN / Creatinine: serum after three injections, n = 5. The protocol: After three injections, blood was collected and centrifuged at 4000 rpm for 5 min to obtain the serum. Blood urea nitrogen (BUN), creatinine, serum aspartate aminotransferase (AST) and alanine aminotransferase (ALT) levels, were assayed as indicators of renal and hepatic function. Whole blood was collected from healthy nude mice after three repeated treatments. Red blood cells (RBC), white blood cells (WBC), platelets (PLT), hemoglobin (HGB) and hematocrits (HCT) were counted for the detection of myelosuppression. Organs (heart, liver, spleen, lung, and kidney) were fixed and sectioned for H&E staining as to evaluate the organ-specific toxicity.

The test system of a further data set is UMUC3 cells. The data set can be described thus: MTT cell viability and combination index on UMUC3 cells. The following applies: 48 h treatment. The class given is cell-based, human. The protocol: MTT (3-[4,5-dimethylthiazol-2-yl]-2,5-diphenyltetrazolium bromide) assay was conducted to detect in vitro viability of free GMP, cisplatin and their combinations as well as PLGA GMP NP, PLGA cisplatin NP and PLGA Combo NP. In Brief, cells were seeded in 96-well plates with a density of 3,000 cells per well 24 h prior to drug treatment. On the second day, cells were treated with free drugs or the drug combination at a series of dilutions with various molar ratios. Forty-eight h post treatment, 20 μL of MTT (5 mg/mL) reagent was added for another 4 h at 37° C. The medium was then discarded and the formed formazan salt was dissolved in 150 μL of DMSO. The absorbance in each well was read at the wavelength of 570 nm using a multidetection microplate reader (Plate […]). Each concentration was tested in five wells and data presented as mean±SD. […] Combination Index (CI) Analysis of free drug combination based on the Chou and Talalay method (T. C. Chou, P. Talalay, Adv. Enzyme Regul. 1984, 22, 27) was conducted using CompuSyn software. Briefly, for each level of Fa, the CI values of cisplatin and GMP combinations were calculated according to the following equation: […] CI values of the drug combinations were drawn as a function of Fa. […] (Y. Han, Z. He, […]. Bronich, R. Jordan, […], Mol. Pharm. 2012, 9, 2302).

In data set [3] the test system is stroma-rich UMUC3 bladder cancer xenograft. The data set can be described thus: Anti-tumor efficacy in stroma-rich UMUC3 bladder cancer xenografts (TUNEL, PCNA, Pt-DNA adduct, western blot). The class given is in vivo, mice. The following applies: tumor lysates after three doses. On the technique in general: Immunoblotting shows a protein as a band on a membrane.

This is an account of results in patent publication US20160271072A1, “POLYMER NANOPARTICLES CONTAINING MULTIPLE AGENTS AND METHODS THEREOF” (THE UNIVERSITY OF NORTH CAROLINA AT CHAPEL HILL, priority 2013, published 2016).

One may read the IC50 as the midpoint of a concentration-inhibition curve.

As to `[NH2][Pt]([NH2])([Cl])[Cl]` [CDDP, cisplatin], in the data set on A375-luc cells, the concentration for half-maximal inhibition (IC50) is 10 µM. Moreover, the “EE into PLGA NP” value in data set [1] was found to be 74.0±10.1%. Besides, in data set [2], the “blood cell counts (RBC, PLT, WBC, HCT, HGB) vs untreated control” value is “significantly reduced”; the ALT is recorded as 59 ± 1 U/L; the AST is 216 ± 15 U/L; the BUN is 25 ± 1 mg/dL. In data set [2], this compound displayed a Creatinine of 0.2 mg/dL.
In the case of Gemcitabine monophosphate [GMP], the concentration for half-maximal inhibition (IC50) with UMUC3 cells stood at 34.8 µM. Also, the “expression of ERCC1 and XPA (western blot)” value in data set [3] is “down-regulation”. Moreover, the “EE into PLGA NP” value in data set [1] was 70.6±2.5%. Also, in data set [2], the “blood cell counts (RBC, PLT, WBC, HCT, HGB) vs untreated control” value is “significantly reduced”; the ALT turned out to be 47 ± 3 U/L; the AST is listed as 122 ± 20 U/L; the BUN was 24 ± 2 mg/dL. Also, in data set [2], the Creatinine is 0.2 mg/dL.
Consider `CO[C@H]1C[C@@H]2CC[C@@H](C)[C@@](O)(O2)C(=O)C(=O)N2CCCC[C@H]2C(=O)O[C@H]([C@H](C)C[C@@H]2CC[C@@H](O)[C@H](OC)C2)CC(=O)[C@H](C)/C=C(\C)[C@@H](O)[C@@H](OC)C(=O)[C@H](C)C[C@H](C)/C=C/C=C/C=C/1C` [RAPA, rapamycin], for which the concentration for half-maximal inhibition (IC50) in the data set with A375-luc cells (48 h) amounted to 16 µM.
